Experiments:
[1] = biological target: T1, Prostaglandin D2 receptor 2 (Homo sapiens, UniProt Q9Y5Y4); assay: Inhibitory activity for binding of PGD-2 to CRTH-2 in hCRTH-2 binding assay using HEK293 cell membranes
T1 sequence (Q9Y5Y4 whole entry): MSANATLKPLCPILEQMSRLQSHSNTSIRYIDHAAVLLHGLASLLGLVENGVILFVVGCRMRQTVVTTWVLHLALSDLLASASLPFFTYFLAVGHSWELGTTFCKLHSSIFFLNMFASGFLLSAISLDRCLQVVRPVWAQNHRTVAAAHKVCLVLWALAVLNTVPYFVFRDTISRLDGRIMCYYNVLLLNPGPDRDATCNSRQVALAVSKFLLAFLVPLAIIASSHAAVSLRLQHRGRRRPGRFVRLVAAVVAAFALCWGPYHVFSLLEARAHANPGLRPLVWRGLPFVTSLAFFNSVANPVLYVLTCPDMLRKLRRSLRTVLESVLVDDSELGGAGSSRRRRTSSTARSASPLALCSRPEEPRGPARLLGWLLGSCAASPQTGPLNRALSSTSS

[2] = biological target: T1, Prostaglandin D2 receptor 2; assay: Inhibitory concentration for PGD2-mediated receptor activation in a fluorescence assay that measures changes in intracellular calcium; assay type: functional, cell-based
[3] = biological target: T2, Thromboxane A2 receptor (Homo sapiens, UniProt P21731); assay: Inhibitory activity for binding of PGD-2 in hTP binding assay using HEK293 cell membranes
T2 sequence (P21731 whole entry): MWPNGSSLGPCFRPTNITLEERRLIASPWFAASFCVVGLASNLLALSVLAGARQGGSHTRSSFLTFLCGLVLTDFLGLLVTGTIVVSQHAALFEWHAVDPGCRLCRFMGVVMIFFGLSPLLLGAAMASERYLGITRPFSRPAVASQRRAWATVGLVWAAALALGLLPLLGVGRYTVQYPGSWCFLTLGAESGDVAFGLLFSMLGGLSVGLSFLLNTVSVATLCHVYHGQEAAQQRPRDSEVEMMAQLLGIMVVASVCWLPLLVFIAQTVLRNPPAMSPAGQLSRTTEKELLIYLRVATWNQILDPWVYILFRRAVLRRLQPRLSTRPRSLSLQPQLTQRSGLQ

[4] = biological target: T3, Thromboxane A2 receptor (Homo sapiens) (UniProt P21731); assay: Percentage inhibition for binding of PGD-2 in hTP binding assay using HEK293 cell membranes; conditions: concentration not given here
T3 sequence (whole entry): T2 sequence (P21731 whole entry)

[5] = biological target: T1, Prostaglandin D2 receptor 2; assay: = for PGD2-mediated receptor activation in a fluorescence assay that measures changes in intracellular calcium
[6] = biological target: T1, Prostaglandin D2 receptor 2; assay: Inhibitory activity against CRTH-2 in hCRTH-2 binding assay using HEK293 cell membranes
[7] = biological target: T2, Thromboxane A2 receptor; assay: Inhibitory activity for binding of PGD-2 to hTP in hTP binding assay using HEK293 cell membranes

Ki [1] [µM]	also measured	Compound
4.2		Cc1cccc(S(=O)(=O)Nc2ccc3c(c2)c2c(n3CCC(=O)O)CCCC2)c1
7.4		O=C(O)CCn1c2c(c3cc(NS(=O)(=O)c4ccc5ccccc5c4)ccc31)CCCC2
> 50		CC(CC(=O)O)n1c2c(c3cc(NS(=O)(=O)c4ccc(F)cc4)ccc31)CCCC2 (configuration not stated)
	IC50 [2]: 0.13 µM	O=C(O)Cn1c2c(c3cc(NS(=O)(=O)c4ccc(F)cc4)ccc31)CCC2
> 50		CCCS(=O)(=O)Nc1ccc2c(c1)c1c(n2CCC(=O)O)CCCC1
18		CCC(C(=O)O)n1c2c(c3cc(NS(=O)(=O)c4ccc(F)cc4)ccc31)CCCC2 (configuration not stated)
4.4		CC(C(=O)O)n1c2c(c3cc(NS(=O)(=O)c4ccc(F)cc4)ccc31)CCCC2 (configuration not stated)
7.6		O=C(O)CCn1c2c(c3cc(NS(=O)(=O)c4cccs4)ccc31)CCCC2
> 50		Cc1ccccc1S(=O)(=O)Nc1ccc2c(c1)c1c(n2CCC(=O)O)CCCC1
	IC50 [2]: 0.12 µM	CC(C)(C)C1CCc2c(c3cc(NS(=O)(=O)c4ccc(F)cc4)ccc3n2CC(=O)O)C1 (configuration not stated)
3		O=C(O)CCn1c2c(c3cc(NS(=O)(=O)c4ccc(Cl)cc4)ccc31)CCCC2
> 50		CC(Cn1c2c(c3cc(NS(=O)(=O)c4ccc(F)cc4)ccc31)CCCC2)C(=O)O (configuration not stated)
4.2		O=C(O)CCn1c2c(c3cc(NS(=O)(=O)c4ccc(F)c(F)c4)ccc31)CCCC2
> 50		Nc1ccc2c(c1)c1c(n2CCC(=O)O)CCCC1
1.3		O=C(O)CCn1c2c(c3cc(NS(=O)(=O)c4cccc(F)c4)ccc31)CCCC2
8.3		O=C(O)CCCn1c2c(c3cc(NS(=O)(=O)c4ccc(F)cc4)ccc31)CCCC2
3.6		O=C(O)CCn1c2c(c3cc(NS(=O)(=O)c4ccc(F)cc4F)ccc31)CCCC2
0.29	Ki [3]: 0.018 µM; inhibition [4]: 98%; IC50 [5]: 0.34 µM	O=C(O)CCn1c2c(c3ccccc31)C[C@H](NS(=O)(=O)c1ccc(F)cc1)CC2 [RAMATROBAN]
4.6		O=C(O)CCCCn1c2c(c3cc(NS(=O)(=O)c4ccc(F)cc4)ccc31)CCCC2
2.1		COc1ccc(S(=O)(=O)Nc2ccc3c(c2)c2c(n3CCC(=O)O)CCCC2)cc1
3.3		O=C(O)CCn1c2c(c3cc(NS(=O)(=O)c4ccc(-c5ccccc5)cc4)ccc31)CCCC2

Ki [1] [µM]	also measured	Compound
33		O=C(O)c1ccccc1-n1c2c(c3cc(NS(=O)(=O)c4ccc(F)cc4)ccc31)CCCC2
1.2		O=C(O)CCn1c2c(c3cc(NS(=O)(=O)c4ccccc4)ccc31)CCCC2
	Ki [3]: > 20 µM; IC50 [2]: 0.0097 µM; inhibition [4]: 30%	CC1CCc2c(c3cc(NS(=O)(=O)c4ccc(F)cc4)ccc3n2CC(=O)O)C1 (configuration not stated)
0.25	Ki [6]: 0.25 µM; Ki [3]: 1.5 µM	O=C(O)CCn1c2c(c3cc(NS(=O)(=O)c4ccc(F)cc4)ccc31)CCCC2
1.7		O=C(O)CCn1c2c(c3cc(NS(=O)(=O)c4ccc(F)c(Cl)c4)ccc31)CCCC2
> 50		O=P(O)(O)CCn1c2c(c3cc(NS(=O)(=O)c4ccc(F)cc4)ccc31)CCCC2
17		O=C(O)CCn1c2c(c3cc(NCc4ccccc4)ccc31)CCCC2
> 50		O=C(O)CCn1c2c(c3cc(NC(=O)c4ccccc4)ccc31)CCCC2
7.5		O=C(O)CCn1c2c(c3cc(NS(=O)(=O)c4ccc(Oc5ccccc5)cc4)ccc31)CCCC2
0.97		O=C(O)CCn1c2c(c3cc(NS(=O)(=O)c4ccccc4F)ccc31)CCCC2
27		O=C(O)c1cccc(-n2c3c(c4cc(NS(=O)(=O)c5ccc(F)cc5)ccc42)CCCC3)c1
	Ki [3]: > 20 µM; IC50 [2]: 0.022 µM	O=C(O)CN1c2ccc(NS(=O)(=O)c3ccc(F)cc3)cc2C2CCCCCC21 (configuration not stated)
6.4		O=C(O)c1ccc(-n2c3c(c4cc(NS(=O)(=O)c5ccc(F)cc5)ccc42)CCCC3)cc1
2.4		O=S(=O)(O)CCn1c2c(c3cc(NS(=O)(=O)c4ccc(F)cc4)ccc31)CCCC2
3.2		Cc1ccc(S(=O)(=O)Nc2ccc3c(c2)c2c(n3CCC(=O)O)CCCC2)cc1
> 50		O=C(O)CCn1c2c(c3cc(NC(=O)Nc4ccccc4)ccc31)CCCC2
0.03	Ki [7]: > 20 µM	O=C(O)Cn1c2c(c3cc(NS(=O)(=O)c4ccc(F)cc4)ccc31)CCCC2
	Ki [3]: > 20 µM; IC50 [2]: 0.022 µM; inhibition [4]: 66%	O=C(O)Cn1c2c(c3cc(NS(=O)(=O)c4ccc(F)cc4)ccc31)CC(c1ccccc1)CC2 (configuration not stated)
7.4		O=C(O)CCn1c2c(c3cc(NS(=O)(=O)c4ccc(O)cc4)ccc31)CCCC2
19		O=C(O)/C=C\n1c2c(c3cc(NS(=O)(=O)c4ccc(F)cc4)ccc31)CCCC2

Source: ChEMBL document CHEMBL1142052, “Isosteric ramatroban analogs: selective and potent CRTH-2 antagonists” (Bioorg Med Chem Lett, 2005)
